Laboratory results reported in patent US20070299098A1, “Therapeutic Agent for Neuropathic Pain” (Japan Science and Technology Agency, priority 2004, published 2007).

What was measured:
[1] = system: hyperalgesia model induced by complete ligation of the L5/L6 spinal nerves; assay: Mechanical stimulation test (Dynamic Plantar Aesthesiometer), left plantar pain threshold in hyperalgesia model; assay type: in vivo, rats; details: for maximum pain threshold following administration (mechanical stimulation): measured 20, 40, 60 min after administration, male rats; for change of pain threshold versus saline control, in words (mechanical stimulation): intraperitoneal, effective doses, Dunnett's multiple comparison test
Protocol: (§1) Use was made of a hyperalgesia model induced by complete ligation of the L5/L6 spinal nerves in five- to seven-week-old male rats as the experimental animals.
(§2) Mechanical stimulation tests were carried out using the Ugo Basile Model 37400 Dynamic Plantar Aesthesiometer, and thermal stimulation tests were carried out using a plantar thermal stimulation tester (Plantar Test 7370, Ugo Basile). The pain thresholds of the feet on each model animal were measured, and the animals were divided into groups having uniform pain thresholds as measured prior to administration on each day of the experiment. In mechanical stimulation, animals for which the model animal foot pain threshold was 8.0 g or more were excluded from the tests. In thermal stimulation, animals for which the pain threshold for the model foot was 10 seconds or more were excluded from the tests.
(§3) The required amount of the test substance was weighed out and dissolved in physiological saline as the medium. A 2 mg/ml solution was prepared as the highest concentration mixture in the low dosage study, and a 24 mg/ml solution was prepared as the highest concentration mixture in the high dosage study. Solutions at the various concentrations were all prepared at the time of use by suitably diluting these highest concentration mixtures.
Although the object here is to ascertain the direct effect of the test substance on the spinal cord, because the substance has been confirmed to pass through the blood-brain barrier, intraperitoneal administration, which is a simple method of administration, was employed. Using the syringe barrel and needle, a volume of 5 ml/kg was administrated intraperitoneally.
Groups of five male rats (333.7 to 414.2 g) in which the hyperalgesia model had been induced were used.
Groups of five male rats (372.0 to 459.5 g) in which the hyperalgesia model had been induced were used.
Groups of five male rats (295.6 to 356.6 g) in which the hyperalgesia model had been induced were used. […]

[2] = system: hyperalgesia model induced by complete ligation of the L5/L6 spinal nerves; assay: Thermal stimulation test (plantar thermal stimulation tester), left plantar pain threshold in hyperalgesia model; assay type: in vivo, rats; details: for maximum pain threshold following administration (thermal stimulation): thermal stimulation intensity 35, measured 20, 40, 60 min after administration, male rats; for change of pain threshold versus saline control, in words (thermal stimulation): intraperitoneal, effective doses
Protocol: as §1, §2, §3
Using the syringe barrel and needle, a volume of 5 ml/kg was administrated intraperitoneally.
Groups of five male rats (356.7 to 444.0 g) in which the hyperalgesia model had been induced were used.
Groups of five male rats (400.3 to 499.9 g) in which the hyperalgesia model had been induced were used.
Groups of five male rats (324.8 to 399.0 g) in which the hyperalgesia model had been induced were used.
(§4) Groups of five male rats (307.0 to 393.1 g) in which the hyperalgesia model had been induced were used. A plantar thermal stimulation tester set to a thermal stimulation intensity of 35 was used to measure the left plantar pain threshold before naloxonazine administration, and 20 minutes, 40 minutes and 60 minutes after administration.
as §4, with “(365.3” for “(307.0”, “437.2” for “393.1”, “naltrindole” for “naloxonazine”

[3] = high dose study, 30-120 mg/kg intraperitoneal

C=CCN1CC[C@]23c4c5ccc(O)c4O[C@H]2/C(=N/N=C2\CC[C@@]4(O)[C@H]6Cc7ccc(O)c8c7[C@@]4(CCN6CC=C)[C@H]2O8)CC[C@@]3(O)[C@H]1C5 [naloxonazine]
maximum pain threshold following administration (mechanical stimulation) ([1]; 0.3 mg/kg intraperitoneal): 4.9 g | maximum pain threshold following administration (mechanical stimulation) ([1]; 3 mg/kg intraperitoneal): 8.6 g | maximum pain threshold following administration (mechanical stimulation) ([1]; 30 mg/kg intraperitoneal): 14.5 g | change of pain threshold versus saline control, in words (mechanical stimulation) [1]: rose significantly with the administration of 3 and 30 mg/kg | maximum pain threshold following administration (thermal stimulation) ([2]; 0.3 mg/kg intraperitoneal): 6.9 s | maximum pain threshold following administration (thermal stimulation) ([2]; 3 mg/kg intraperitoneal): 7.9 s | maximum pain threshold following administration (thermal stimulation) ([2]; 30 mg/kg intraperitoneal): 12.3 s | change of pain threshold versus saline control, in words (thermal stimulation) [2]: rose significantly with the administration of 30 mg/kg

C=CCN1CC[C@]23c4c5ccc(O)c4O[C@H]2C(=O)CC[C@@]3(O)[C@H]1C5 [naloxone]
maximum pain threshold following administration (mechanical stimulation) ([1]; 0.1 mg/kg intraperitoneal): 5.8 g | maximum pain threshold following administration (mechanical stimulation) ([1]; 1 mg/kg intraperitoneal): 7.7 g | maximum pain threshold following administration (mechanical stimulation) ([1]; 10 mg/kg intraperitoneal): 9.5 g | maximum pain threshold following administration (mechanical stimulation) ([1]; 30 mg/kg intraperitoneal): 10.4 g | maximum pain threshold following administration (mechanical stimulation) ([1]; 60 mg/kg intraperitoneal): 10.6 g | maximum pain threshold following administration (mechanical stimulation) ([1]; 120 mg/kg intraperitoneal): 10.3 g | dose at which the analgesic effect reached its peak (mechanical stimulation) [1, 3]: 60 mg/kg | change of pain threshold versus saline control, in words (mechanical stimulation) [1]: rose significantly with the administration of 1 mg and 10 mg | maximum pain threshold following administration (thermal stimulation) ([2]; 0.1 mg/kg intraperitoneal): 7.2 s | maximum pain threshold following administration (thermal stimulation) ([2]; 1 mg/kg intraperitoneal): 9.2 s | maximum pain threshold following administration (thermal stimulation) ([2]; 120 mg/kg intraperitoneal): 23.8 s | dose at which the analgesic effect reached its peak (thermal stimulation) [2, 3]: 30 mg/kg | change of pain threshold versus saline control, in words (thermal stimulation) [2]: rose significantly with the administration of 10 mg

O=C1CC[C@@]2(O)[C@H]3Cc4ccc(O)c5c4[C@@]2(CCN3CC2CC2)[C@H]1O5 [naltrexone]
maximum pain threshold following administration (mechanical stimulation) ([1]; 0.3 mg/kg intraperitoneal): 5.1 g | maximum pain threshold following administration (mechanical stimulation) ([1]; 3 mg/kg intraperitoneal): 6.7 g | maximum pain threshold following administration (mechanical stimulation) ([1]; 30 mg/kg intraperitoneal): 10.1 g | change of pain threshold versus saline control, in words (mechanical stimulation) [1]: rose significantly with the administration of 30 mg/kg | maximum pain threshold following administration (thermal stimulation) ([2]; 0.3 mg/kg intraperitoneal): 7.7 s | change of pain threshold versus saline control, in words (thermal stimulation) [2]: rose significantly with the administration of 3 and 30 mg/kg

Oc1ccc2c3c1O[C@H]1c4[nH]c5ccccc5c4C[C@@]4(O)[C@@H](C2)N(CC2CC2)CC[C@]314 [naltrindole]
maximum pain threshold following administration (mechanical stimulation) ([1]; 0.3 mg/kg intraperitoneal): 5.8 g | maximum pain threshold following administration (mechanical stimulation) ([1]; 3 mg/kg intraperitoneal): 9.4 g | maximum pain threshold following administration (mechanical stimulation) ([1]; 30 mg/kg intraperitoneal): 14.1 g | change of pain threshold versus saline control, in words (mechanical stimulation) [1]: rose significantly with the administration of 3 and 30 mg/kg | maximum pain threshold following administration (thermal stimulation) ([2]; 0.3 mg/kg intraperitoneal): 7.0 s | maximum pain threshold following administration (thermal stimulation) ([2]; 3 mg/kg intraperitoneal): 9.2 s | maximum pain threshold following administration (thermal stimulation) ([2]; 30 mg/kg intraperitoneal): 9.2 s | change of pain threshold versus saline control, in words (thermal stimulation) [2]: rose significantly with the administration of 3 and 30 mg/kg
